# Measured values as given in patent publication US8415299B2, “Methods for improved avian performance” (priority 2004, dated 2013).
# Read-outs that look alike come from different tables or passages of the source.
# Experiments:
# [1] = tested on: 66-week-old caged laying hens; settings: cited from earlier work
# [2] = tested on: 102-week old Hy-Line W-36 White Leghorn hens
# Method: Experiment 2. […] The photoperiod was 17 hours of light per day (0330 hours to 2030 hours).
# The objective was to use T4 to humanely induce molting in hens that are continuously provided with ad libitum access to palatable feed meeting or exceeding all National Research Council (1994) standards. Developing a fully efficacious yet affordable molting protocol was predicated on determining the minimum effective level for T4 supplementation. Factors that potentially may affect the required level of T4 supplementation include: (1) uncertainty regarding the efficiency of T4 absorption by the gastrointestinal tract, (2) the possibility that continuous dietary ingestion of T4 could trigger substantially different biological responses when compared single daily injections, and (3) the likelihood that daily T4 intake would diminish in parallel with molt-related reductions in feed intake associated with cessation in egg production. A spontaneous and voluntary loss of appetite (anorexia) commonly accompanies seasonal molting and broodiness in a variety of avian species (Berry, 2003; Webster, 2003). Accordingly, the responses of hens to diets containing 10, 20, and 40 mg T4/kg, to bracket the anticipated range of T4 needed to cause an effective molt, were determined.
# laying hens = settings: cited from earlier work
# [3] = tested on: 96-week old Hy-Line W-36 White Leghorn hens; settings: 20 mg T4/kg groups, either chamber
# Description: Experiment 3. […] The photoperiod serves as the primary environmental signal that regulates reproductive function in many avian species. Increasing the photoperiod promotes maturation of the gonads and reproductive tract, whereas reducing the photoperiod causes the gonads and reproductive tract to regress and molting to occur.
# [4] = 40 mg T4/kg test diet for 10 days
compound,measurement,setting,value
"N[C@@H](Cc1cc(I)c(Oc2cc(I)c(O)c(I)c2)c(I)c1)C(=O)O [L-thyroxine, 3,5,3′,5′-tetraiodothyronine]",Days to target body weight (30% body weight loss),[1]; 10 mg/kg feed in grape pomace diet after 1-day feed withdrawal,16 days
same,Days to target body weight (30% body weight loss),"[1]; corn diet with or without 10 mg/kg, 1-day fast or no fast",28 days
same,Time to onset of molt after T4 feeding was initiated,"[2]; 10 mg T4 kg Group, 10 days on test diets, half of the hens",11 days
same,Feed consumption change from days 2-4 (% FCC),"[2]; 10 mg/kg feed 6 d, Day 11-14",−19.7%
same,Feed consumption (FC),"[2]; 10 mg/kg feed 6 d, Days 2-4 (pre-treatment)",101.3 g/hen/d
same,Feed consumption (FC),"[2]; 10 mg/kg feed 6 d, Days 5-7",60.0 g/hen/d
same,Feed consumption change from days 2-4 (% FCC),"[2]; 10 mg/kg feed 6 d, Days 5-7",−40.8%
same,Feed consumption (FC),"[2]; 10 mg/kg feed 6 d, Days 8-10",35.3 g/hen/d
same,Feed consumption change from days 2-4 (% FCC),"[2]; 10 mg/kg feed 6 d, Days 8-10",−65.2%
same,Feed consumption (FC),"[2]; 10 mg/kg feed 10 d, Day 11-14",47.3 g/hen/d
same,Feed consumption change from days 2-4 (% FCC),"[2]; 10 mg/kg feed 10 d, Day 11-14",−43.7%
same,Feed consumption (FC),"[2]; 10 mg/kg feed 10 d, Days 2-4 (pre-treatment)",84.0 g/hen/d
same,Feed consumption (FC),"[2]; 10 mg/kg feed 10 d, Days 5-7",56.0 g/hen/d
same,Feed consumption change from days 2-4 (% FCC),"[2]; 10 mg/kg feed 10 d, Days 5-7",−33.3%
same,Feed consumption (FC),"[2]; 10 mg/kg feed 10 d, Days 8-10",33.7 g/hen/d
same,Feed consumption change from days 2-4 (% FCC),"[2]; 10 mg/kg feed 10 d, Days 8-10",−59.9%
same,Feed consumption (FC),"[2]; 20 mg/kg feed 6 d, Day 11-14",73.7 g/hen/d
same,Feed consumption change from days 2-4 (% FCC),"[2]; 20 mg/kg feed 6 d, Day 11-14",−28.4%
same,Feed consumption (FC),"[2]; 20 mg/kg feed 6 d, Days 2-4 (pre-treatment)",103.0 g/hen/d
same,Feed consumption (FC),"[2]; 20 mg/kg feed 6 d, Days 5-7",42.0 g/hen/d
same,Feed consumption change from days 2-4 (% FCC),"[2]; 20 mg/kg feed 6 d, Days 5-7",−59.2%
same,Feed consumption (FC),"[2]; 20 mg/kg feed 6 d, Days 8-10",33.7 g/hen/d
same,Feed consumption change from days 2-4 (% FCC),"[2]; 20 mg/kg feed 6 d, Days 8-10",−67.3%
same,Feed consumption (FC),"[2]; 20 mg/kg feed 10 d, Day 11-14",32.7 g/hen/d
same,Feed consumption change from days 2-4 (% FCC),"[2]; 20 mg/kg feed 10 d, Day 11-14",−72.9%
same,Feed consumption (FC),"[2]; 20 mg/kg feed 10 d, Days 2-4 (pre-treatment)",120.7 g/hen/d
same,Feed consumption (FC),"[2]; 20 mg/kg feed 10 d, Days 5-7",54.7 g/hen/d
same,Feed consumption change from days 2-4 (% FCC),"[2]; 20 mg/kg feed 10 d, Days 5-7",−54.7%
same,Feed consumption (FC),"[2]; 20 mg/kg feed 10 d, Days 8-10",30.0 g/hen/d
same,Feed consumption change from days 2-4 (% FCC),"[2]; 20 mg/kg feed 10 d, Days 8-10",−75.1%
same,Hen-day egg production,"[2]; 20 mg/kg feed 10 d, day 4 (pre-treatment)",75%
same,Hen-day egg production,"[2]; 20 mg/kg feed 10 d, day 30",25%
same,Loss of initial body weight,[2]; [4],approximately 21%
same,Reduction of feed intake,[2]; [4],approximately 85%
same,Feed consumption (FC),"[2]; 40 mg/kg feed 6 d, Day 11-14",46.7 g/hen/d
same,Feed consumption change from days 2-4 (% FCC),"[2]; 40 mg/kg feed 6 d, Day 11-14",−52.5%
same,Feed consumption (FC),"[2]; 40 mg/kg feed 6 d, Days 2-4 (pre-treatment)",98.3 g/hen/d
same,Feed consumption (FC),"[2]; 40 mg/kg feed 6 d, Days 5-7",36.7 g/hen/d
same,Feed consumption change from days 2-4 (% FCC),"[2]; 40 mg/kg feed 6 d, Days 5-7",−62.7%
same,Feed consumption (FC),"[2]; 40 mg/kg feed 6 d, Days 8-10",13.7 g/hen/d
same,Feed consumption change from days 2-4 (% FCC),"[2]; 40 mg/kg feed 6 d, Days 8-10",−86.1%
same,Hen-day egg production,"[2]; 40 mg/kg feed 6 d, day 20",25%
same,Hen-day egg production,"[2]; 40 mg/kg feed 6 d, day 22",25%
same,Hen-day egg production,"[2]; 40 mg/kg feed 6 d, day 24",50%
same,Feed consumption (FC),"[2]; 40 mg/kg feed 10 d, Day 11-14",19.3 g/hen/d
same,Feed consumption change from days 2-4 (% FCC),"[2]; 40 mg/kg feed 10 d, Day 11-14",−83.4%
same,Feed consumption (FC),"[2]; 40 mg/kg feed 10 d, Days 2-4 (pre-treatment)",116.3 g/hen/d
same,Feed consumption (FC),"[2]; 40 mg/kg feed 10 d, Days 5-7",37.3 g/hen/d
same,Feed consumption change from days 2-4 (% FCC),"[2]; 40 mg/kg feed 10 d, Days 5-7",−67.9%
same,Feed consumption (FC),"[2]; 40 mg/kg feed 10 d, Days 8-10",22.0 g/hen/d
same,Feed consumption change from days 2-4 (% FCC),"[2]; 40 mg/kg feed 10 d, Days 8-10",−81.1%
same,Hen-day egg production,"[2]; 40 mg/kg feed 10 d, day 12",0%
same,Hen-day egg production,"[2]; 40 mg/kg feed 10 d, day 14",0%
same,Hen-day egg production,"[2]; 40 mg/kg feed 10 d, day 16",0%
same,Hen-day egg production,"[2]; 40 mg/kg feed 10 d, day 18",0%
same,Hen-day egg production,"[2]; 40 mg/kg feed 10 d, day 20",0%
same,Mortality,"[2]; 10, 20, 40 mg T4/kg feed, 6 or 10 days",No mortality occurred in any of the Groups
same,Time within which egg production was consistently reduced,[2]; 20 and 40 mg T4/kg feed,≤ 4 days
same,Effect on egg production and molting,laying hens; 0.2 mg per hen for 21 consecutive days (Szelenyi and Peczely 1988),diminished egg production but did not result in molting
same,Mortality,"laying hens; injected, e.g. 243 micrograms/100 g body weight, White Leghorn hens 7 months of age (Miller et al. 1962)",47%
same,Molting,[3],None of the hens in the Control groups or 20 mg T4/kg groups molted in either chamber
